# Patent publication US20240209353A1, “NADK2 INHIBITION IN CANCER AND FIBROTIC DISORDERS” (Memorial Sloan-Kettering Cancer Center, priority 2021, published 2024)
# Where two headings read alike, the source gives them in different places.
# How the values were obtained:
# DLD1 and T47D cells = assay: Cell death quantification (ferroptosis sensitivity); type: cell-based
# Method: Cells were seeded in 96-well plates at appropriate cell densities (DLD1: 10000 cells/well, T47D: 15000 cells/well), and incubated overnight at 37° C. containing 5% CO2. Contact-inhibited MEFs were seeded in 24-well plates and incubated as described above. Cell were then subjected to treatments as described in figures. Cells were stained with Hoechst 33342 (0.1 μg/ml) to monitor total cell number, and with Sytox Green (5 nM) to monitor cell death. Culture plates were read by Cytation 5 at indicated time point. Percentage of cell death was calculated as Sytox Green-positive cell number over total cell number.
# [1] = tested on: DLD1, T47D and HaCaT cells; assay: Western blot: GSH synthesis enzymes, peroxiredoxin oxidation; type: cell-based, human; settings: 100 μM MitoPQ, 24 hours; similar extent in cells lacking NADK2 and control cells
# Source text: Protein was then transferred to nitrocellulose membrane for immunoblotting.
# MEFs [2] = settings: proline supplementation to the medium
# Method: In brief, confluent MEFs were grown for two days on plates coated with 0.1% gelatin in the presence of 50 μM ascorbate (Sigma, A4034) in the indicated medium. Plates were decellularized with 20 mM ammonium hydroxide/0.5% Triton X-100 for 5 min on a rotating platform. Three times the volume of PBS was added, and ECM was equilibrated overnight at 4° C., followed by four additional PBS washes. To measure collagen abundance, extracted ECM was stained with the Picro Sirius Red Stain Kit (Abcam, ab150681) according to the manufacturer's instructions. The stain was extracted with 0.1 M NaOH, and optical density was measured at 550 nm using a microplate reader. Values were normalized to the packed cell volume of cells grown on a separate plate under the same experimental conditions.
# [3] = tested on: T47D, MCF10A, HaCaT and DLD1 cells; assay: Cell proliferation (cell number fold change); type: cell-based, human; settings: supplements at concentrations present in DMEM/F12
# Method: FIGS. 3A-3B show cell proliferation measured as cell number fold change (Day 4/Day 0) of T47D cells treated with sgCtrl, sgNADK2-1, or sgNADK2-2, cultured in the indicated medium and supplementation. “LA” is lipoic acid. “Pyr” is pyruvate. “Cu” is cupric sulfate. “Zn” is zinc sulfate. “B12” is vitamin B12. “A” is alanine. “D” is aspartate. “N” is asparagine. “E” is glutamate, and “P” is proline. All supplements were added at the concentrations present in DMEM/F12. […] FIGS. 3D-3F show a Western blot (FIG. 3D), proline abundance measured by GC-MS (FIG. 3E), and cell proliferation (FIG. 3F) of DMEM-cultured T47D cells treated with sgCtrl or sgNADK2-2 and ectopically expressing vector or NADK2 cDNA resistant to sgNADK2-2 mediated CRISPR-Cas9 genome editing. FIGS. 3G-3I show a Western blot (FIG. 3G), proline abundance measured by GC-MS (FIG. 3H), and cell proliferation (FIG. 3I) of DMEM-cultured T47D cells treated with sgCtrl, sgNADK2-1, or sgNADK2-2 and ectopically expressing vector or the POS5 cDNA. All error bars represent mean+SD, n=3. In FIGS. 3A-3C, 3H, and 3I, one-way ANOVA was performed. In FIGS. 3E and 3F, a two-sided t-test was performed with Welch's correction. ** P<0.01; *** P<0.001; n.s., P>0.05.
# FIGS. 8D-8H show cell proliferation measured as cell number fold change of the indicated cells with sgCtrl, sgNADK2-1, or sgNADK2-2, cultured in the indicated medium and supplementation. […]
# MEFs [4] = settings: 300 μM proline added to culture medium
# Method: (§1) Cells were lysed in RIPA lysis buffer (Millipore 20-188) supplemented with protease inhibitors (Thermo Fisher, 78428). Protein concentration was determined by BCA protein assay (Thermo Fisher, 23228), following which equal amount of protein was loaded and separated in polyacrylamide gels. Protein was then transferred to nitrocellulose membrane for immunoblotting.
# NIH-3T3 cells = settings: 0.15 mM proline in culture medium
# Method: as §1
compound,measurement,setting,value
CCOc1ccccc1-n1c(C(C)N2CCN(C(=O)COc3ccc(Cl)cc3)CC2)nc2ccccc2c1=O (centres unmarked) [Erastin],cell death of cells lacking NADK2 upon ferroptosis inducer,DLD1 and T47D cells,no increase in cell death
C[n+]1ccc(-c2cc[n+](CCCCCCCCCC[P+](c3ccccc3)(c3ccccc3)c3ccccc3)cc2)cc1.[I-].[I-].[I-] [MitoParaquat],expression of enzymes involved in GSH synthesis,[1],increased
COC(=O)c1ccc([C@@H]2c3[nH]c4ccccc4c3C[C@@H](C(=O)OC)N2C(=O)CCl)cc1 [RSL3],cell death of cells lacking NADK2 upon ferroptosis inducer,"DLD1 and T47D cells; vs control cells, 24 or 48 hours",no increase in cell death
"O=C(O)[C@@H]1CCCN1 [proline, L-proline]",collagen secretion of fibroblasts lacking NADK2 upon supplementation,MEFs [2],rescued
same,growth of cells lacking NADK2 in DMEM upon supplementation,[3],necessary and sufficient to restore proliferation
same,ATF4 accumulation in cells lacking NADK2,MEFs [4],blunted
same,collagen expression in cells lacking NADK2,MEFs [4],restored
same,expression of collagen protein in P5CS-deleted cells upon proline addition,NIH-3T3 cells,restored
